Experiment [1] deals with IL-1β. The experiment is described as follows: ELISA of IL-1β in brain tissue of cerebral ischemia-reperfusion rats. Conditions: brain homogenate, 12 mg/kg by gavage 5 days.
Experiment [2] relates to acute blood stagnation model rats. In words: Whole blood and plasma viscosities in acute blood stagnation model rats. Conditions: 12 mg/kg by gavage 5 days. In kind it is in vivo, rat. An excerpt: MAO Teng-min's methods were modified to prepare the model.
The subject of experiment [3] is TGF-β. In words: ELISA of TGF-β in brain tissue of cerebral ischemia-reperfusion rats. Conditions: brain homogenate, 12 mg/kg by gavage 5 days.
In experiment [4] the test system is IL-10. In words: ELISA of IL-10 in brain tissue of cerebral ischemia-reperfusion rats. Conditions: brain homogenate, 12 mg/kg by gavage 5 days. (An ELISA detects its analyte on a solid surface through an enzyme-linked reagent.)
Experiment [5] deals with Middle Cerebral Artery Thrombosis (MCAT) Rats. The experiment is described as follows: Water content in brain tissues in middle cerebral artery thrombosis rats. In kind it is in vivo, rat. Conditions: 24 h after operation, 12 mg/kg.
In experiment [6] the test system is acute blood stagnation model rats. The experiment is described as follows: Erythrocyte aggregation and deformability in acute blood stagnation model rats. It counts as in vivo, rat. Conditions: 12 mg/kg. As to the method: MAO Teng-min's methods were modified to prepare the model. Rats were subcutaneously injected with 0.8 mg/kg adrenaline twice at 1 h and 5 h after administration on the fifth day, and were placed into ice-water at 4° C. for 5 min at 2 h after the first injection of adrenaline.
To 40 μl of heparinized blood, 1 ml of deforming solution was added and mixed thoroughly. A sample of 0.8 ml was tested in an erythrocyte aggregation/deformability tester, and erythrocyte deformability was expressed as maximal erythrocyte deformation index and area under curve (SSS). Another 0.8 ml of anticoagulated blood was tested in an erythrocyte aggregation/deformability tester, and erythrocyte aggregation was expressed as maximal erythrocyte aggregation index (MAXD) and area under curve ([…]).

Experiment [7] has as its system TNF-α. The experiment is described as follows: ELISA of TNF-α in brain tissue of cerebral ischemia-reperfusion rats. Conditions: brain homogenate, 12 mg/kg by gavage 5 days.
The subject of experiment [8] is FeCl3-Induced Middle Cerebral Artery Thrombosis (MCAT) Rats. In words: Neurological symptom score in middle cerebral artery thrombosis rats. It counts as in vivo, rat. Conditions: 0.6 mg/kg by gavage 7 days, full score 4. The text has this:
(§1) Tamura and Liu's methods were used with modifications to prepare the model. Rats were anesthetized by intraperitoneal injection of 10% chloral hydrate (0.35 g/kg); and fixed with right arm reclining. An arc incision of about 1.5 cm in length was made at the midpoint between the link of paropia and external auditory canal and temporalis was removed to expose the temporal bone. […] The surrounding-tissues were protected with a piece of plastic film. A small piece of quantitative filter paper, which had absorbed 10 μL of a 50% ferric chloride solution, was applied on this segment of middle cerebral artery. The filter paper was removed after 30 min, and local tissues were rinsed with normal saline solution, followed by suture layer by layer. Then the experimental rats were put back to rearing cage. The temperature was controlled at 24° C. For the sham-operation group, the operation procedures were the same as the model group except for the application of the ferric chloride solution.
The experimental animals were tested for behaviors 6 h and 24 h after operation according to the Sederson's method with modifications. Criteria: (1) The tail of the rat was lifted to observe the flexibility of the forelimb, with both forelimbs symmetrically stretching forward scored as 0, and occurrence of any or all of shoulder inflexion, elbow inflexion, shoulder intorsion in the contralateral fore-limb opposite to the operation side scored as 1. (2) The animal was placed on a plane, and its shoulders were pushed to the opposite direction to check resistance, Equivalency and strong resistance in both sides was scored as 0, and reduction in resistance in the contralateral side was scored as 1. (3) Both forelimbs of the rat were placed on wire gauze to observe the muscular tension. […] According to the criteria above, the full score is 4, and the higher the score is, the more serious the behavior disorder of the animal is.

Experiment [9] has the same test system. In words: Cerebral infarct size (TTC staining) in FeCl3-induced middle cerebral artery thrombosis rats. Conditions: 0.6 mg/kg by gavage 7 days, x ± s. It counts as in vivo, rat.
Source text: as §1
After behavior assessment, the animals were decapitated to remove the brains. The olfactory bulb, cerebellum and lower brain stem were removed, and the remaining part was cut into 5 coronal sections below 4° C. The sections were immediately placed into a TTC staining solution (containing 1.5 m 4% TTC, 0.1 ml 1M K2HPO4 and water (balance) per 5 ml staining solution), followed by incubation in dark at 37° C. for 30 min. Then, the sections were transferred into a solution of 10% formaldehyde and incubated in dark for 24 h. After staining, the non-ischemic areas were rose red, and the infracted areas were white. The white tissues were carefully collected and weighed. The extent of cerebral infarction was expressed as a percentage (%) of infracted tissue to the weight of total brain and also to the affected side of brain.

For the compound `COCCOC(=O)C1=C(C)NC(C)=C(C(=O)OC(C)C)C1c1cccc([N+](=O)[O-])c1` (stereo not shown) [Nimodipine, reference compound], the IL-1β in [1] was 9.01 ± 0.81 pg/mL. For the same compound, in experiment [2], the “Plasma viscosity (100 S^−1)” value came out at 1.41 ± 0.14, the “Whole blood viscosity 1 S^−1” value came out at 30.45 ± 8.74, the “Whole blood viscosity 5 S^−1” value was 12.34 ± 2.58 and the “Whole blood viscosity 30 S^−1” value was found to be 6.47 ± 0.92. Besides, the “Whole blood viscosity 200 S^−1” value in experiment [2] turned out to be 4.51 ± 0.55. Besides, in [3], the TGF-β was 12.01 ± 2.54 pg/mL. This compound showed an IL-10 in [4] of 4.98 ± 3.54 pg/mL. In addition, in experiment [5], the “Water content of affected hemisphere” value was 80.37 ± 0.73 % and the “Water content of unaffected hemisphere” value worked out at 79.44 ± 0.41%. Also, in experiment [6] (area under curve), the “Erythrocyte aggregation SS” value stood at 160.38 ± 16.50 and the “Erythrocyte deformability SSS” value came to 353.92 ± 15.83. Moreover, in [6] (maximal erythrocyte aggregation index), the “Erythrocyte aggregation MAXD” value turned out to be 0.80 ± 0.09. Further, the “Erythrocyte deformability MAXDI” value in experiment [6] (maximal erythrocyte deformation index) is given as 0.70 ± 0.03. The same compound yielded a TNFα in experiment [7] of 7.92 ± 0.56 pg/mL.
Consider Hydergine [reference compound], for which, in [8] (6 h after operation), the “neurological symptomatic score 6 h” value was 1.91 ± 0.83. For the same compound, the “neurological symptomatic score 24 h” value in experiment [8] (24 h after operation) amounted to 1.55 ± 0.69. In [9], the “cerebral infarct size percentage to affected side” value was found to be 3.75 ± 1.38 % and the “cerebral infarct size percentage to total brain” value worked out at 1.98 ± 0.72 %.
